Each structure is given as a SMILES string. Where a SMILES comes first, the peptide text is derived from it.

In this assay the target is Nicotinic acetylcholine receptor alpha9/alpha10 (Rattus norvegicus, UniProt P43144+Q9JLB5). Briefly: Antagonist activity at rat alpha9alpha10 nACh receptor expressed in Xenopus oocyte assessed as inhibition of acetylcholine-induced response at -70 mV holding potential by voltage-clamp based electrophysiological assay. Format: cell-based.
Nicotinic acetylcholine receptor alpha9/alpha10, sequence (P43144 whole entry): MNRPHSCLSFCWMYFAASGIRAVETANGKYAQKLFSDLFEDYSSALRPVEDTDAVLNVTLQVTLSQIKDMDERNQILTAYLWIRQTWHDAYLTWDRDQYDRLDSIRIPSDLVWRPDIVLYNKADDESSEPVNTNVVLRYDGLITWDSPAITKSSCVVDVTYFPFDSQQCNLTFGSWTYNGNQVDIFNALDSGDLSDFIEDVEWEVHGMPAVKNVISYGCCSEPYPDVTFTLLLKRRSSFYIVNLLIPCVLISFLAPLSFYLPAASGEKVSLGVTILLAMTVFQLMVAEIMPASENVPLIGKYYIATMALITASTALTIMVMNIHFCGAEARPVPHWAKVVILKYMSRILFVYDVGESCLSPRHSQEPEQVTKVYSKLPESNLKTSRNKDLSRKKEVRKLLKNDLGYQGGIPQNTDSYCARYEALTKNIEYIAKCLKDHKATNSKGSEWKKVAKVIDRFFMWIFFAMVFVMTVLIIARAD
Nicotinic acetylcholine receptor alpha9/alpha10, sequence (Q9JLB5 whole entry): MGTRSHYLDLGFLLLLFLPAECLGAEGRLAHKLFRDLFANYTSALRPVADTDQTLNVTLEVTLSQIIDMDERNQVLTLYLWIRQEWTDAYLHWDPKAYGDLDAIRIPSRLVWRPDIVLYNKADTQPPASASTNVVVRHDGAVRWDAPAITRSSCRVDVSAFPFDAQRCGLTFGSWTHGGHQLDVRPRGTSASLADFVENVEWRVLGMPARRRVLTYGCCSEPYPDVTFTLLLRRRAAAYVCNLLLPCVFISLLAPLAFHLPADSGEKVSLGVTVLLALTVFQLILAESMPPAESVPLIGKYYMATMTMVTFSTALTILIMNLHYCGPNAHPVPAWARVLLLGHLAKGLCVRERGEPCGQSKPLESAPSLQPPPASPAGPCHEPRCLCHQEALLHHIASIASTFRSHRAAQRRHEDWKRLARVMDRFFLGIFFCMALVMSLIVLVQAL
For the compound `CC[C@H](C)[C@@H]1NC(=O)[C@H](CCCNC(=N)N)NC(=O)[C@H](CCCNC(=N)N)NC(=O)[C@@H](NC(=O)[C@H](Cc2ccc(O)cc2)NC(=O)[C@H](C)NC(=O)[C@H](CCCNC(=N)N)NC(=O)[C@H](CCCNC(=N)N)NC(=O)[C@H](C)NC(=O)[C@H](CC(=O)O)NC(=O)[C@H](Cc2ccc(O)cc2)NC(=O)[C@@H]2CCCN2C(=O)[C@H](CO)NC(=O)[C@H](CCCNC(=N)N)NC(=O)[C@@H]2CSSC[C@H](NC(=O)[C@@H](N)[C@@H](C)O)C(=O)N[C@@H](CCCNC(=N)N)C(=O)N[C@@H](CO)C(=O)N[C@@H](CO)C(=O)NCC(=O)N[C@@H](CCCNC(=N)N)C(=O)N[C@@H](Cc3ccc(O)cc3)C(=O)N2)CSSC[C@@H](C(=O)N[C@H](C(=O)O)C(C)C)NC(=O)[C@H](C)NC(=O)[C@H](CC(=O)O)NC(=O)[C@H]([C@@H](C)O)NC1=O`, the 50% inhibitory concentration (IC50) stood at 350 nM.
Then `CC[C@H](C)[C@@H]1NC(=O)[C@H](CCCNC(=N)N)NC(=O)[C@H](CCCNC(=N)N)NC(=O)[C@@H](NC(=O)[C@H](Cc2ccc(O)cc2)NC(=O)[C@H](C)NC(=O)[C@H](C)NC(=O)[C@H](CCCNC(=N)N)NC(=O)[C@H](CCCNC(=N)N)NC(=O)[C@H](CC(=O)O)NC(=O)[C@H](Cc2ccc(O)cc2)NC(=O)[C@@H]2CCCN2C(=O)[C@H](CO)NC(=O)[C@H](CCCNC(=N)N)NC(=O)[C@@H]2CSSC[C@H](NC(=O)[C@@H](N)[C@@H](C)O)C(=O)N[C@@H](CCCNC(=N)N)C(=O)N[C@@H](CO)C(=O)N[C@@H](CO)C(=O)NCC(=O)N[C@@H](CCCNC(=N)N)C(=O)N[C@@H](Cc3ccc(O)cc3)C(=O)N2)CSSC[C@@H](C(=O)N[C@H](C(=O)O)C(C)C)NC(=O)[C@H](C)NC(=O)[C@H](CC(=O)O)NC(=O)[C@H]([C@@H](C)O)NC1=O`, with 230 nM.
The result for `CC[C@H](C)[C@@H]1NC(=O)[C@H](CCCNC(=N)N)NC(=O)[C@H](CCCNC(=N)N)NC(=O)[C@@H](NC(=O)[C@H](Cc2ccc(O)cc2)NC(=O)[C@H](CCCNC(=N)N)NC(=O)[C@H](CCCNC(=N)N)NC(=O)[C@H](CCCNC(=N)N)NC(=O)[C@H](CCCNC(=N)N)NC(=O)[C@H](CC(=O)O)NC(=O)[C@H](Cc2ccc(O)cc2)NC(=O)[C@@H]2CCCN2C(=O)[C@H](CO)NC(=O)[C@H](C)NC(=O)[C@@H]2CSSC[C@H](NC(=O)[C@@H](N)[C@@H](C)O)C(=O)N[C@@H](C)C(=O)N[C@@H](CO)C(=O)N[C@@H](CO)C(=O)NCC(=O)N[C@@H](CCCNC(=N)N)C(=O)N[C@@H](Cc3ccc(O)cc3)C(=O)N2)CSSC[C@@H](C(=O)N[C@H](C(=O)O)C(C)C)NC(=O)[C@H](C)NC(=O)[C@H](CC(=O)O)NC(=O)[C@H]([C@@H](C)O)NC1=O` (HELM PEPTIDE1{T.C.A.S.S.G.R.Y.C.A.S.P.Y.D.R.R.R.R.Y.C.R.R.I.T.D.A.C.V}$PEPTIDE1,PEPTIDE1,2:R3-9:R3|PEPTIDE1,PEPTIDE1,20:R3-27:R3$$$V2.0) reads 590 nM; that for `CC[C@H](C)[C@@H]1NC(=O)[C@H](CCCNC(=N)N)NC(=O)[C@H](CCCNC(=N)N)NC(=O)[C@@H](NC(=O)[C@H](Cc2ccc(O)cc2)NC(=O)[C@H](CCCNC(=N)N)NC(=O)[C@H](C)NC(=O)[C@H](CCCNC(=N)N)NC(=O)[C@H](C)NC(=O)[C@H](CC(=O)O)NC(=O)[C@H](Cc2ccc(O)cc2)NC(=O)[C@@H]2CCCN2C(=O)[C@H](CO)NC(=O)[C@H](CCCNC(=N)N)NC(=O)[C@@H]2CSSC[C@H](NC(=O)[C@@H](N)[C@@H](C)O)C(=O)N[C@@H](CCCNC(=N)N)C(=O)N[C@@H](CO)C(=O)N[C@@H](CO)C(=O)NCC(=O)N[C@@H](CCCNC(=N)N)C(=O)N[C@@H](Cc3ccc(O)cc3)C(=O)N2)CSSC[C@@H](C(=O)N[C@H](C(=O)O)C(C)C)NC(=O)[C@H](C)NC(=O)[C@H](CC(=O)O)NC(=O)[C@H]([C@@H](C)O)NC1=O`, 230 nM.
The result for `CC[C@H](C)[C@@H]1NC(=O)[C@H](CCCNC(=N)N)NC(=O)[C@H](CCCNC(=N)N)NC(=O)[C@@H](NC(=O)[C@H](Cc2ccc(O)cc2)NC(=O)[C@H](C)NC(=O)[C@H](CCCNC(=N)N)NC(=O)[C@H](C)NC(=O)[C@H](CCCNC(=N)N)NC(=O)[C@H](CC(=O)O)NC(=O)[C@H](Cc2ccc(O)cc2)NC(=O)[C@@H]2CCCN2C(=O)[C@H](CO)NC(=O)[C@H](CCCNC(=N)N)NC(=O)[C@@H]2CSSC[C@H](NC(=O)[C@@H](N)[C@@H](C)O)C(=O)N[C@@H](CCCNC(=N)N)C(=O)N[C@@H](CO)C(=O)N[C@@H](CO)C(=O)NCC(=O)N[C@@H](CCCNC(=N)N)C(=O)N[C@@H](Cc3ccc(O)cc3)C(=O)N2)CSSC[C@@H](C(=O)N[C@H](C(=O)O)C(C)C)NC(=O)[C@H](C)NC(=O)[C@H](CC(=O)O)NC(=O)[C@H]([C@@H](C)O)NC1=O` reads 410 nM; that for `CC[C@H](C)[C@@H]1NC(=O)[C@H](CCCNC(=N)N)NC(=O)[C@H](CCCNC(=N)N)NC(=O)[C@@H](NC(=O)[C@H](Cc2ccc(O)cc2)NC(=O)[C@H](CCCNC(=N)N)NC(=O)[C@H](CCCNC(=N)N)NC(=O)[C@H](CCCNC(=N)N)NC(=O)[C@H](CCCNC(=N)N)NC(=O)[C@H](CC(=O)O)NC(=O)[C@H](Cc2ccc(O)cc2)NC(=O)[C@@H]2CCCN2C(=O)[C@H](CO)NC(=O)[C@H](CCCNC(=N)N)NC(=O)[C@@H]2CSSC[C@H](NC(=O)[C@@H](N)[C@@H](C)O)C(=O)N[C@@H](C)C(=O)N[C@@H](CO)C(=O)N[C@@H](CO)C(=O)NCC(=O)N[C@@H](C)C(=O)N[C@@H](Cc3ccc(O)cc3)C(=O)N2)CSSC[C@@H](C(=O)N[C@H](C(=O)O)C(C)C)NC(=O)[C@H](C)NC(=O)[C@H](CC(=O)O)NC(=O)[C@H]([C@@H](C)O)NC1=O` (HELM PEPTIDE1{T.C.A.S.S.G.A.Y.C.R.S.P.Y.D.R.R.R.R.Y.C.R.R.I.T.D.A.C.V}$PEPTIDE1,PEPTIDE1,2:R3-9:R3|PEPTIDE1,PEPTIDE1,20:R3-27:R3$$$V2.0), 370 nM.
With `CC(C)C[C@H](NC(=O)[C@H](CCCCN)NC(=O)[C@H](CC(N)=O)NC(=O)[C@@H]1CCCN1C(=O)[C@H](CCC(N)=O)NC(=O)[C@H](C)NC(=O)CNC(=O)[C@H](CO)NC(=O)[C@H](CCCCN)NC(=O)[C@H](CCC(=O)O)NC(=O)[C@H](CC(C)C)NC(=O)[C@H](CS)NC(=O)[C@@H](CCCNC(=N)N)NC(=O)[C@@H](N)C(C)C)C(=O)N[C@@H](Cc1ccccc1)C(=O)N[C@@H](CCCNC(=N)N)C(=O)N1CCC[C@H]1C(=O)N1CCC[C@H]1C(=O)N[C@@H](CS)C(=O)N[C@@H](CS)C(=O)N[C@@H](CCC(N)=O)C(=O)N[C@@H](CCCCN)C(=O)NCC(=O)N1CCC[C@H]1C(=O)N[C@@H](CO)C(=O)N[C@@H](Cc1ccccc1)C(=O)N[C@@H](C)C(=O)N[C@@H](CCCNC(=N)N)C(=O)N[C@@H](Cc1cnc[nH]1)C(=O)N[C@@H](CO)C(=O)N[C@@H](CCCNC(=N)N)C(=O)N[C@@H](CS)C(=O)N[C@H](C(=O)N[C@@H](Cc1ccc(O)cc1)C(=O)N[C@@H](Cc1ccc(O)cc1)C(=O)N[C@H](C(=O)N[C@@H](CCC(N)=O)C(=O)N[C@@H](CO)C(=O)N[C@@H](CCCNC(=N)N)C(=O)N[C@@H](CCC(=O)O)C(=O)O)[C@@H](C)O)C(C)C`, the IC50 came to 1200 nM.
The result for `CC[C@H](C)[C@@H]1NC(=O)[C@H](CCCNC(=N)N)NC(=O)[C@H](CCCNC(=N)N)NC(=O)[C@@H](NC(=O)[C@H](Cc2ccc(O)cc2)NC(=O)[C@H](CCCNC(=N)N)NC(=O)[C@H](C)NC(=O)[C@H](C)NC(=O)[C@H](CCCNC(=N)N)NC(=O)[C@H](CC(=O)O)NC(=O)[C@H](Cc2ccc(O)cc2)NC(=O)[C@@H]2CCCN2C(=O)[C@H](CO)NC(=O)[C@H](CCCNC(=N)N)NC(=O)[C@@H]2CSSC[C@H](NC(=O)[C@@H](N)[C@@H](C)O)C(=O)N[C@@H](CCCNC(=N)N)C(=O)N[C@@H](CO)C(=O)N[C@@H](CO)C(=O)NCC(=O)N[C@@H](CCCNC(=N)N)C(=O)N[C@@H](Cc3ccc(O)cc3)C(=O)N2)CSSC[C@@H](C(=O)N[C@H](C(=O)O)C(C)C)NC(=O)[C@H](C)NC(=O)[C@H](CC(=O)O)NC(=O)[C@H]([C@@H](C)O)NC1=O` reads 130 nM.
The result for `CC[C@H](C)[C@@H]1NC(=O)[C@H](CCCNC(=N)N)NC(=O)[C@H](CCCNC(=N)N)NC(=O)[C@@H](NC(=O)[C@H](Cc2ccc(O)cc2)NC(=O)[C@H](CCCNC(=N)N)NC(=O)[C@H](CCCNC(=N)N)NC(=O)[C@H](C)NC(=O)[C@H](C)NC(=O)[C@H](CC(=O)O)NC(=O)[C@H](Cc2ccc(O)cc2)NC(=O)[C@@H]2CCCN2C(=O)[C@H](CO)NC(=O)[C@H](CCCNC(=N)N)NC(=O)[C@@H]2CSSC[C@H](NC(=O)[C@@H](N)[C@@H](C)O)C(=O)N[C@@H](CCCNC(=N)N)C(=O)N[C@@H](CO)C(=O)N[C@@H](CO)C(=O)NCC(=O)N[C@@H](CCCNC(=N)N)C(=O)N[C@@H](Cc3ccc(O)cc3)C(=O)N2)CSSC[C@@H](C(=O)N[C@H](C(=O)O)C(C)C)NC(=O)[C@H](C)NC(=O)[C@H](CC(=O)O)NC(=O)[C@H]([C@@H](C)O)NC1=O` reads 260 nM; that for `CC[C@H](C)[C@@H]1NC(=O)[C@H](C)NC(=O)[C@H](C)NC(=O)[C@@H](NC(=O)[C@H](Cc2ccc(O)cc2)NC(=O)[C@H](CCCNC(=N)N)NC(=O)[C@H](CCCNC(=N)N)NC(=O)[C@H](CCCNC(=N)N)NC(=O)[C@H](CCCNC(=N)N)NC(=O)[C@H](CC(=O)O)NC(=O)[C@H](Cc2ccc(O)cc2)NC(=O)[C@@H]2CCCN2C(=O)[C@H](CO)NC(=O)[C@H](CCCNC(=N)N)NC(=O)[C@@H]2CSSC[C@H](NC(=O)[C@@H](N)[C@@H](C)O)C(=O)N[C@@H](CCCNC(=N)N)C(=O)N[C@@H](CO)C(=O)N[C@@H](CO)C(=O)NCC(=O)N[C@@H](CCCNC(=N)N)C(=O)N[C@@H](Cc3ccc(O)cc3)C(=O)N2)CSSC[C@@H](C(=O)N[C@H](C(=O)O)C(C)C)NC(=O)[C@H](C)NC(=O)[C@H](CC(=O)O)NC(=O)[C@H]([C@@H](C)O)NC1=O`, 180 nM.
